According to the supplement of paper PMC10307832:

How the values were obtained:
Assay in all cases: relative viability (nuclei count vs DMSO), 5 days (fraction); higher = more cells survive
[1] = compound: CCCS(=O)(=O)Nc1ccc(F)c(C(=O)c2c[nH]c3ncc(-c4ccc(Cl)cc4)cc23)c1F [Vemurafenib] + N=C(N)NC(=N)NCCc1ccccc1 [Phenformin] (partner 250 µM)
Summary of the method: (§1)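 After 5 days of treatment, lung cancer cells in 1536-well plates were fixed and stained in a single step (final 0.05% Triton X-100, 1% formaldehyde, 1 ug/ml Hoechst) and their nuclei counted on 4× images. Treatment had been applied by pin tool the day after seeding as one drug alone or as a fixed anchor-drug dose with five library-drug doses (not always all listed) in √10 steps. Relative viability is the nuclei count of treated wells divided by that of vehicle wells, and values are medians of duplicate plates.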

[2] = compound: CCCS(=O)(=O)Nc1ccc(F)c(C(=O)c2c[nH]c3ncc(-c4ccc(Cl)cc4)cc23)c1F [Vemurafenib] + NC(=O)Nc1cc(-c2cccc(F)c2)sc1C(=O)N[C@H]1CCCNC1 [AZD7762] (partner 0.2 µM)
Summary of the method: as §1

[3] = compound: COc1cccc2cc(-c3nc([C@H]4CC[C@H](C(=O)O)CC4)n4ncnc(N)c34)[nH]c12 [OSI-027] + C[C@@H](Oc1cc(-c2cnn(C3CCNCC3)c2)cnc1N)c1c(Cl)ccc(F)c1Cl [Crizotinib] (partner 1 µM)
Summary of the method: as §1

[4] = compound: COc1cccc2cc(-c3nc([C@H]4CC[C@H](C(=O)O)CC4)n4ncnc(N)c34)[nH]c12 [OSI-027] + O=C(c1cc(Cc2n[nH]c(=O)c3ccccc23)ccc1F)N1CCN(C(=O)C2CC2)CC1 [Olaparib] (partner 8 µM)
Summary of the method: as §1

Cell Line	relative viability ([1]; first compound 0.03162 µM)	relative viability ([1]; first compound 0.1 µM)	relative viability ([1]; first compound 0.3162 µM)	relative viability ([1]; first compound 1 µM)	relative viability ([2]; first compound 0.03162 µM)	relative viability ([2]; first compound 0.1 µM)	relative viability ([2]; first compound 0.3162 µM)	relative viability ([2]; first compound 1 µM)	relative viability ([3]; first compound 0.01 µM)	relative viability ([3]; first compound 0.03162 µM)	relative viability ([3]; first compound 0.1 µM)	relative viability ([3]; first compound 0.3162 µM)	relative viability ([3]; first compound 1 µM)	relative viability ([4]; first compound 0.01 µM)	relative viability ([4]; first compound 0.03162 µM)	relative viability ([4]; first compound 0.1 µM)	relative viability ([4]; first compound 0.3162 µM)	relative viability ([4]; first compound 1 µM)
LCLC-103H	0.312	0.342	0.262	0.307	0.757	0.741	0.617	0.694	1.07	1.03	1.18	0.948	1.01	0.731	0.753	0.749	0.702	0.817
LK-2	0.396	0.609	0.398	0.185	0.397	0.428	0.406	0.312	0.199	0.229	0.273	0.242	0.203	0.611	0.642	0.654	0.476	0.173
LOU-NH91	0.644			0.731	0.735	0.682	0.594	0.816	0.73	0.726	0.693	0.681	0.508	0.91	0.907	0.844	0.843	0.638
LU99A	0.887	0.841	0.551	0.783	0.369	0.353		0.385	0.522	0.522	0.46	0.313	0.208	0.279	0.231	0.251	0.201	0.2
LXF-289	0.456	0.457	0.435	0.551	1.04	1.12	1.04	1.25	0.859	0.827	0.892	0.909	0.759	1.07	1.05	1.13	0.971	0.625
NCI-H23	0.702	0.797	0.728	0.723	0.203	0.178	0.154	0.21	0.482	0.416	0.535	0.525	0.293	0.339	0.341	0.3	0.141	0.188
NCI-H322M	0.714			0.724	0.559		0.543	0.51	0.86	0.929	0.951	0.947	0.775	0.818	0.718	0.813	0.666	0.505
NCI-H358	0.282	0.19	0.448	0.455	0.551		0.621	0.632	0.566	0.509	0.552	0.704	0.348	0.708	0.546	0.579	0.572	0.422
NCI-H441	0.952	0.856	0.739	0.744	1.09	1.1	1.16	1.03	0.679	0.613	0.633	0.604	0.338	0.649	0.58	0.548	0.494	0.3
NCI-H460	0.495	0.52	0.316	0.52	0.579	0.604		0.619	0.888	0.714	1.06	0.759	0.184	0.663	0.369	0.41	0.448	0.239
NCI-H596	0.871	0.748	0.725	0.56	1.11	1.05	0.801	1.02	0.946	1.07	1.05	0.838	0.734	0.743	0.688	0.651	0.684	0.612
NCI-H647	0.439	0.404	0.446	0.376	0.433	0.541	0.26	0.432	1.12	1.2	1.07	0.701	0.456	0.681	0.613	0.56	0.463	0.398
NCI-H650	0.437	0.443		0.37	0.854	1.03	0.419	0.906	0.733	0.583	0.582	0.469	0.336	0.406	0.38	0.364	0.337	0.219
NCI-H727	0.508		0.718	0.559	0.555	0.468	0.744	0.59	0.626	0.862	0.798	0.655	0.517	0.675	0.688	0.671	0.752	0.556
NCI-H838	0.506	0.581		0.672	0.899	0.955	0.709	0.918	0.803	0.696	0.599	0.447	0.367	0.791	0.856	0.705	0.492	0.437
NCI-H1355	0.424	0.426	0.36	0.487	0.672	0.663	0.603	0.698	0.969	0.937	0.998	0.847	0.276	0.702	0.667	0.663	0.521	0.342
NCI-H1437	0.258	0.315	0.29	0.309	1.14	1.04	0.943	1.09	0.987	0.966	0.995	0.944	0.441	0.646	0.664	0.63	0.644	0.53
NCI-H1651	0.318	0.295	0.325	0.311	0.407	0.407	0.4	0.467	0.878	0.801	0.841	0.816	0.635	0.199	0.173	0.178	0.189	0.186

Cell Line	relative viability ([1]; first compound 0.03162 µM)	relative viability ([1]; first compound 0.1 µM)	relative viability ([1]; first compound 0.3162 µM)	relative viability ([1]; first compound 1 µM)	relative viability ([2]; first compound 0.03162 µM)	relative viability ([2]; first compound 0.1 µM)	relative viability ([2]; first compound 0.3162 µM)	relative viability ([2]; first compound 1 µM)	relative viability ([3]; first compound 0.01 µM)	relative viability ([3]; first compound 0.03162 µM)	relative viability ([3]; first compound 0.1 µM)	relative viability ([3]; first compound 0.3162 µM)	relative viability ([3]; first compound 1 µM)	relative viability ([4]; first compound 0.01 µM)	relative viability ([4]; first compound 0.03162 µM)	relative viability ([4]; first compound 0.1 µM)	relative viability ([4]; first compound 0.3162 µM)	relative viability ([4]; first compound 1 µM)
NCI-H1666	0.549	0.594	0.63	0.604	0.782	0.73	0.729	0.829	1	1.09	0.754	0.76	0.524	0.777	0.67	0.744	0.77	0.71
NCI-H1734	0.403	0.358	0.359	0.356	0.568	0.533	0.371	0.559	0.618	0.509	0.731	0.599	0.394	0.656	0.597	0.599	0.566	0.401
NCI-H1755	0.545	0.599	0.377	0.597	0.483	0.459	0.328	0.408	0.915	0.771	0.872	0.748	0.421	0.874	0.849	0.883	0.761	0.486
NCI-H1792	0.228	0.236	0.115	0.336	0.548	0.44		0.593	1.06	0.617	1.01	0.902	0.199	0.33	0.296	0.247	0.354	0.142
NCI-H1915	0.354	0.348	0.255	0.332	0.644	0.728	0.587	0.612	0.928	0.829	0.931	0.896	0.584	0.284	0.274	0.259	0.298	0.237
NCI-H1944	0.206	0.18	0.122	0.191	0.515		0.426	0.57	1.18	1.18	1.1	0.918	0.596	0.371	0.373	0.422	0.355	0.265
NCI-H1975	0.422	0.406	0.289	0.466	0.689	0.697	0.396	0.654	1.1	0.88	0.99	0.97	0.828	0.803	0.609	0.755	0.76	0.478
NCI-H1993	0.532		0.595	0.468	0.657		0.804	0.966	0.783	0.77	0.678	0.565	0.56	1.03	0.894	0.902	0.653	0.522
NCI-H2085	0.65	0.57	0.683	0.676	0.893	0.804	0.928	0.997	0.807	0.852	0.825	0.812	0.586	0.751	0.771	0.726	0.763	0.633
NCI-H2087	0.438	0.402		0.467	1.12	1.31	1.09	1.19	0.991	0.971	0.753	0.866	0.53	0.757	0.675	0.586	0.542	0.259
NCI-H2126	0.513	0.485		0.533	0.971	0.997	0.99	1.1	1.04	0.986	0.996	0.915	0.664	0.939	0.904	0.879	0.835	0.578
NCI-H2170	0.396	0.354	0.376	0.454	0.774		0.685	0.766	1.31	1.07	0.986	1.1	0.552	0.664	0.592	0.604	0.525	0.346
NCI-H2347	0.33	0.38	0.463	0.234	0.744	0.744	0.664	0.884	0.668	0.609	0.673	0.388	0.405	0.599	0.536	0.598	0.492	0.344
NCI-H2405	0.382	0.374		0.368	0.709	0.696		0.721	0.856	0.729	0.814	0.631	0.338	0.886	0.838	0.823	0.694	0.456
NCI-H3122	0.357	0.372	0.292	0.394	0.988	0.895	0.922	1.09	0.261	0.26	0.266	0.215	0.163	0.759	0.604	0.682	0.647	0.407
PC-3 [JPC-3]	0.482		0.498	0.513			0.785	0.94	0.999	0.943	1.02	0.984	0.551	1.13	1.14	1.23	1.08	0.628
PC-14	0.456		0.218	0.652	0.272			0.356	1	0.898	0.95	0.934	0.581	0.228	0.267	0.292	0.306	0.23
RERF-LC-KJ	0.428	0.408	0.398	0.498	0.874	1.01	0.663	1.08	0.884	0.938	0.861	0.805	0.484	0.829	0.866	0.82	0.798	0.496
